pKd: −log10 of the molar value.
Tests used:
SdrCN2N3 [1] = target: T1, SdrCN2N3 (Staphylococcus aureus, UniProt O86487); experiment: Fluorescence polarization inhibition by unlabeled peptides of SdrCN2N3 binding to fluorescein-labeled spNrxwt; parameters: species or system S. aureus; details: 0.5 µM SdrCN2N3 with unlabeled peptide 3 hours, then 3 hours with 10 nM labeled spNrxwt, room temperature; mean±SD, three experiments
T1 construct: Increasing concentrations of SdrC178-496 were incubated with 10 nM labeled peptide; His tag (N); made in house; host or cells: E. coli Topp 3
Description: After 3 hours, the mixture was incubated for another 3 hours at room temperature in the dark with 10 nM fluorescein labeled spNrxwt peptide. Fluorescence polarization was determined as described above. The values represented here are the mean±SD of triplicates from three experiments.
To eliminate the possibility that the binding was dependent of the fluorescein label introduced in the wild-type peptide, we tested the ability of unlabeled spNrxwt and spNrxscr to inhibit the binding of SdrCN2N3 to fluorescein-labeled spNrxwt. Increasing concentrations of unlabeled peptides were incubated with SdrCN2N3 for three hours at room temperature before the fluorescent polarization experiment was performed.
For inhibition assays, 0.5 µM SdrC178–496 was first incubated with increasing concentrations of unlabeled Nrxwt or unlabeled Nrxscr for 3 hours at room temperature. The mixture was then incubated for 3 hours with fluorescein-labeled Nrxwt. The results presented represent the mean±SD of three independent experiments.

[2] = test system: SdrCN2N3 - Nrx47-255 interaction; experiment: Peptide inhibition of SdrCN2N3 binding to immobilized Nrx47-255; parameters: species or system S. aureus (SdrC); details: 0.5 µM SdrCN2N3 with increasing peptide, 2 hours, room temperature, then on immobilized Nrx47-255; mean±SD of triplicates from three experiments
Description: Figure 3 Structural organization of β-neurexins. (A) A cartoon representation of β-neurexin domain structure. S, signal sequence; NL, neuroligin-binding domain; Glyc, glycosylation domain; TM, transmembrane domain; PDZ, intracellular signaling domain. Also shown, are the recombinant proteins used in this study. (B) Coomassie-stained SDS-PAGE gel of GST-tagged neurexin 1β domains recombinant proteins. Increasing concentrations of SdrCA (C) and SdrCN2N3 (D) were incubated with immobilized Nrx47-255 (black square), Nrx70–255 (black triangle) or GST (black circle) for 1 hour at room temperature. […] (E) SdrC178–496 (0.5 µM) was incubated with increasing concentrations of spNrxwt peptide (black square) or spNrxscr peptide (black triangle) at room temperature. After 2 hours, the mixture was incubated with immobilized Nrx47–255. […]
Each well of Immulon 4BH plates was coated with 1 µg of recombinant Nrx47–255-GST, Nrx70–255-GSTor GST overnight at 4°C. […] Bound protein was detected with a polyclonal antibody (1∶3000) against SdrCN2N3 (H.T.I. BioProducts) followed by an anti-rabbit HRP-labeled antibody (1∶5000) (Bio-Rad Labs, Hercules, CA). Color development was performed using SigmaFast OPD (Sigma, St. Louis, MO) and the binding was measured using a microtiter plate reader (Molecular Devices) at 450 nm. […] The binding was analyzed by non-linear regression for one binding site (GraphPad Prism).

SdrCN2N3 [3] = target: T1, SdrCN2N3; assay type: binding, S. aureus; details: 10 nM fluorescein-labeled peptide, 3 hours, room temperature, dark
Description: We used fluorescence polarization to determine the dissociation constant for the SdrCN2N3-Nrx1β peptide interaction. spNrxwt and spNrxscr were labeled with fluorescein and incubated with increasing concentrations of recombinant MSCRAMM.
Increasing concentrations of SdrCN2N3 or ClfBN2N3 (black circle) were incubated with 10 nM fluorescein-labelled spNrxwt peptide (black square) or spNrxscr peptide (black triangle) for 3 hours at room temperature in the dark. Equation ΔP = ΔPmax [protein]/(KD+[protein]) was used to calculate the equilibrium constant. […] After 3 hours, the mixture was incubated for another 3 hours at room temperature in the dark with 10 nM fluorescein labeled spNrxwt peptide. Fluorescence polarization was determined as described above. […]
Increasing concentrations of SdrC178-496 were incubated with 10 nM labeled peptide for 3 hours in the dark at room temperature. Polarization was measured using Luminescence Spectrometer LB50B (Perkin Elmer). The data were analyzed by non-linear regression for one binding site. The equilibrium dissociation constant was calculated using the equation ΔP = ΔPmax x [protein])/(KD + [protein]) (Eq.1) where ΔP is the change in fluorescence polarization, ΔPmax is the maximum change in fluorescence polarization and KD is the equilibrium dissociation constant of the interaction.

[4] = target: Nrx_(47-255)-GST, recombinant neurexin 1β fragment (human) (UniProt P58400); experiment: ELISA; solid phase binding assay: 1 µg/well Nrx-GST protein or GST coated on Immulon 4BH plates, increasing concentrations of SdrC protein, 1 hour at room temperature, detected with anti-SdrC_(N2N3) serum; apparent KD (concentration for half maximum binding)
[5] = target: fluorescein-labeled spNrxwt (human); experiment: fluorescence polarisation; increasing concentrations of MSCRAMM with 10 nM fluorescein-labelled peptide, 3 hours at room temperature in the dark; one-site fit
[6] = Phage display panning with immobilized SdrGN2N3 or BSA, total bound TUs; assay type: binding; details: input phage 1.5×10^11, 1 µg/well
Text: Analysis of peptides or protein segments displaced on the surface of phage is a useful method to identify partners in protein-protein interaction systems,[17],[18],[19]. To determine if this method can be used to identify ligands for MSCRAMMs from Gram-positive bacteria, we performed a validation experiment using SdrGN2N3 as bait in a screen of a commercially available 12-mer linear library (New England Biolabs Ph.D.-12 Phage Display Peptide Library). We carried out three successive rounds of panning against immobilized SdrGN2N3. To confirm that the enrichment of the phage clones between panning rounds was the result of specific interactions, the phage pool before and after each step of amplification was also tested for binding to BSA. […] We then sequenced the DNA purified from ten phage plaques obtained after the third round of panning.
NEB Ph.D.12-mer random library was incubated with immobilized SdrC N2N3, SdrG N2N3 or BSA at 1 µg/well. The input was 1.5×10^11 transducing units with a complexity of 2.7×10^9 electroporated sequences. The assay was performed according to the manufacturer's instructions. The output phage plaques were 10^4 transducing units. Wells were washed with 0.5% Tween in TBS buffer, blocked with 10% BSA and incubated with 1×10^8 transducing units of each amplified phage or insertless phage (fd-tet). To remove unbound phage, wells were washed 10 times with 0.5% Tween in TBS. Bound phage was detected with anti-M13-HRP antibody (GE Healthcare, Buckinghamshire, UK).

T1 sequence (O86487 178-496): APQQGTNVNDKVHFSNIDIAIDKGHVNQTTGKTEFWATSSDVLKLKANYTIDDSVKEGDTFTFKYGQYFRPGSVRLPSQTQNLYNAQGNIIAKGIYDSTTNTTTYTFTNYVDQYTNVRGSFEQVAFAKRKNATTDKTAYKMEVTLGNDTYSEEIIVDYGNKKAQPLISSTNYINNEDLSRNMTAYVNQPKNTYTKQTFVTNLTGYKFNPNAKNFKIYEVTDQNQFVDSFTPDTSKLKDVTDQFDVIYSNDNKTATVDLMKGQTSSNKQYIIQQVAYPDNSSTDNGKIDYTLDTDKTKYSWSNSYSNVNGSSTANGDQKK
Sequence of SdrC N2N3 domain, recombinant SdrC_(178-496) (O86487 178-496 limits assumed): as the sequence (O86487 178-496) above
Sequence of Nrx_(47-255)-GST, recombinant neurexin 1β fragment (human) (P58400 47-255): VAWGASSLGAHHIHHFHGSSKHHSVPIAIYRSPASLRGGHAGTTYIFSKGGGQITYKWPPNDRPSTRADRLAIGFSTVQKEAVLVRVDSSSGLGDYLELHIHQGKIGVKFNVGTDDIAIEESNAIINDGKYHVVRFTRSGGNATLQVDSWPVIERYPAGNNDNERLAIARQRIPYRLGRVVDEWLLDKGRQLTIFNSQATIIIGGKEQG
Sequence of SdrC A-region, recombinant SdrC_(52-496) (O86487 52-496 limits assumed): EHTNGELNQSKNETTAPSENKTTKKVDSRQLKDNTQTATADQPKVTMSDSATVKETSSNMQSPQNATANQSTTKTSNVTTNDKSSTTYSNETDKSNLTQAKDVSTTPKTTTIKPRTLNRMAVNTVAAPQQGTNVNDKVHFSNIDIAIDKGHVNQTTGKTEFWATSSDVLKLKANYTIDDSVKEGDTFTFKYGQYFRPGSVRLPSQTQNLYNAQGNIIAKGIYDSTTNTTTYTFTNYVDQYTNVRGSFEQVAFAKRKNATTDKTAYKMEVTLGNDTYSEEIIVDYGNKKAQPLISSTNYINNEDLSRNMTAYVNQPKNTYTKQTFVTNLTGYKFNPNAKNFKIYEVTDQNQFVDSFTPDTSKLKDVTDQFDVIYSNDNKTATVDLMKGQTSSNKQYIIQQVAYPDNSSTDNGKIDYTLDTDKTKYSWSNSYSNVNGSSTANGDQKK

HSHIKLHSHGHSFGHA [spNrxscr]
inhibition of SdrCN2N3 binding to fluorescein-labeled spNrxwt (SdrCN2N3 [1]): but not the spNrxscr inhibited
inhibition of SdrCN2N3-Nrx47-255 binding [2]: did not observe an inhibition
binding to SdrCN2N3 by fluorescence polarization (SdrCN2N3 [3]): did not detect a significant binding

SdrC A-region, recombinant SdrC_(52-496) (from UniProt O86487 52-496) (domain or fragment)
pKd [4]: 6.73

SdrC N2N3 domain, recombinant SdrC_(178-496) (from UniProt O86487 178-496) (domain or fragment)
pKd [5]: 6.60
pKd [4]: 6.90

SdrG: fibrinogen-binding MSCRAMM of Staphylococcus epidermidis, N2N3 domain used as bait
Total bound TUs ([6]; panning 1): 4×10^5 TUs
Total bound TUs ([6]; panning 2): 3×10^7 TUs
Total bound TUs ([6]; panning 3): 2×10^8 TUs

From PMC2800189, “β-Neurexin Is a Ligand for the Staphylococcus aureus MSCRAMM SdrC” (PLoS Pathogens, 2010)
